Assay results as given in PMC10150359 (Journal of Medicinal Chemistry, 2023).
Where two headings read alike, the source gives them in different places.

Assays:
[1] = tested on: VSV-G-pseudotype virus (pVSV-G); assay: microbe, parasite or virus in culture; assay type: cell-based; conditions: Vesicular stomatitis virus, read-out: %inh@10 µM (pVSV-G)
[2] = tested on: EBOV-GP-Pseudotype Virus (pEBOV)
[3] = tested on: wild-type Zaire EBOV Mayinga 1976 strain (EBOV May)
[4] = tested on: EBOV-GP-Pseudotype Virus (pEBOV); conditions: cited from earlier work
[5] = tested on: EBOV-GP-Pseudotype Virus (pEBOV); assay: microbe, parasite or virus in culture; conditions: Zaire ebolavirus, HeLa, 48 h, read-out: EC50 (μM) (pEBOV)
[6] = tested on: wild-type Zaire EBOV Mayinga 1976 strain (EBOV May); assay: microbe, parasite or virus in culture; conditions: Zaire ebolavirus, Vero C1008, 72 h, read-out: EC50 (μM), replicative EBOV
[7] = in vitro; conditions: human
[8] = in vitro; conditions: chlorocebus sabaeus
[9] = target: EBOV-GPcl/NPC1-domain C (Zaire ebolavirus, UniProt Q05320); assay type: binding, Homo sapiens
Sequence of EBOV-GPcl/NPC1-domain C (Q05320 33-190 limits assumed): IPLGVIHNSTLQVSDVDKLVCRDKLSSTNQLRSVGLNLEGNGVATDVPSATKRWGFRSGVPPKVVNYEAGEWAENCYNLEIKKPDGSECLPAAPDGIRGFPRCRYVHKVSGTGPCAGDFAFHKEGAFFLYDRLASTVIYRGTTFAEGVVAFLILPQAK
Sequence of EBOV-GPcl/NPC1-domain C (Q05320 502-676 limits assumed): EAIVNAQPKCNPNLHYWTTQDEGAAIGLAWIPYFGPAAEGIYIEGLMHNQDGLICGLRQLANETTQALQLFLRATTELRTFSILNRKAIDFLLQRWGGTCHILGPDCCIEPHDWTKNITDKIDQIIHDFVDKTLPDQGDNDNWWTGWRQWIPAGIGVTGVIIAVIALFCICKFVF

[10] = pH 7.4
[11] = CD-1, mouse, pH 7.4
[12] = target: T1, hERG potassium channel (Homo sapiens, UniProt Q12809)
T1 sequence (Q12809 whole entry): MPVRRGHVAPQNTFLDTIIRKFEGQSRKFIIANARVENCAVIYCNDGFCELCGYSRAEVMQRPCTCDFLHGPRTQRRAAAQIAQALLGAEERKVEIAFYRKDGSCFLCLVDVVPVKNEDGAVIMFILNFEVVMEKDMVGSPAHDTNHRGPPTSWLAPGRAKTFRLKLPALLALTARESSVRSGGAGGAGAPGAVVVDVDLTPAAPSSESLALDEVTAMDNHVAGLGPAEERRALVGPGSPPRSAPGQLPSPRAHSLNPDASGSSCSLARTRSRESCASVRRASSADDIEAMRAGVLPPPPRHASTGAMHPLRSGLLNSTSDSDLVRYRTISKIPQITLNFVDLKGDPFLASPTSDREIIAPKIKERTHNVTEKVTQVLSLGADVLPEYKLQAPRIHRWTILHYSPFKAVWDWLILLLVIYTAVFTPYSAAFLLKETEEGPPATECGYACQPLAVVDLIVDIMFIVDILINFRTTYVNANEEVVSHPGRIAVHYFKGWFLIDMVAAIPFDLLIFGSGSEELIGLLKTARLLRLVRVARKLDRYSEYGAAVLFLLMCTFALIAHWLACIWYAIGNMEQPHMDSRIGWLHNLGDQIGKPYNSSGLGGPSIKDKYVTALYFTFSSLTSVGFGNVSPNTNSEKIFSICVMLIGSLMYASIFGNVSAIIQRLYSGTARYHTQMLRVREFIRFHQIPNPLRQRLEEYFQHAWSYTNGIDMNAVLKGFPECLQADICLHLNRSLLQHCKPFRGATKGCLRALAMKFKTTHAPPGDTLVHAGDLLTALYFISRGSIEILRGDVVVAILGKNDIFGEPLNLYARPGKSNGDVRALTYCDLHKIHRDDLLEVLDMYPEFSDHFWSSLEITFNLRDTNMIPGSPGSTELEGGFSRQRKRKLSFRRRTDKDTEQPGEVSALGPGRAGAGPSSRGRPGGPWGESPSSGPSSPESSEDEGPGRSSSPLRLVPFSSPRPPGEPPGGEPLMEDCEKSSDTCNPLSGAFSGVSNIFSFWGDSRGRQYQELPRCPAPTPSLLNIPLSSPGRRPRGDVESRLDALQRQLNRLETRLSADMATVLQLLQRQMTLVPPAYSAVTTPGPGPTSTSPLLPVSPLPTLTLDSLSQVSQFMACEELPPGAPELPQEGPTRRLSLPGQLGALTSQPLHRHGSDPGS

[13] = male, BALB/c, mouse, in vivo
[14] = in vivo; conditions: male, BALB/c, mouse; for Cmax at 24 h: Cmax (ng/mL)
[15] = in vitro; conditions: human, microsomes, pH 7.4
[16] = in vitro; conditions: CD-1, mouse, microsomes, pH 7.4
[17] = target: T1, hERG potassium channel; assay: in vitro; conditions: pH 7.2
[18] = ip, 10 mg/kg, Brain-Kp (AUClast)
[19] = po, 50 mg/kg, Brain-Kp (AUClast)

Row | SMILES | inhibition at 10 µM [1] [%] | SI (pEBOV) (CC50/EC50) [2] | SI (CC50/EC50), replicative EBOV [3] | EC50 [5] [µM] | EC50 [6] [µM] | CC50 at 24 h [7] [µM] | CC50 at 24 h [8] [µM] | loss of binding between EBOV-GPcl/NPC1-domain C [9] | CLint (mL/min/mg protein), human liver microsomes [10] [mL/min/mg protein] | CLint (mL/min/mg protein), mouse liver microsomes [11] [mL/min/mg protein] | cardiotoxicity classification from hERG IC50 [12] | Kp at 24 h [14, 18] | Kp at 24 h ([14]; ip, 10 mg/kg, Brain-Kp (Cmax)) | half-life at 24 h ([14]; po, 50 mg/kg) [min] | Kp at 24 h [14, 19] | Kp at 24 h ([14]; po, 50 mg/kg, Brain-Kp (Cmax)) | half-life at 1 h, 10 µM [15] [min] | half-life at 1 h, 10 µM [16] [min] | IC50 [17] [µM] | further results
1 | O=C(CNCCC1CCN(Cc2ccccc2)CC1)Nn1c2ccccc2c2ccccc21 [Compound 1] | 25 | 19 | 11.0 | 0.37 | 1.5 |  |  |  |  |  |  |  |  |  |  |  |  |  |  | IC50 [4]: 0.37 µM
2 | O=C(CNCCC1CCN(Cc2ccccc2)CC1)NN(c1ccccc1)c1ccccc1 [Compound 10, 2-((2-(1-Benzylpiperidin-4-yl)ethyl)amino)-N′,N′-diphenylacetohydrazide] | 2 | 15 | 16.9 | 3.13 | 1.9 | 48 | 32.2 |  |  |  |  |  |  |  |  |  |  |  |  | 
3 | O=C(CCNCCC1CCN(Cc2ccccc2)CC1)NN(c1ccccc1)c1ccccc1 [Compound 11, 3-((2-(1-Benzylpiperidin-4-yl)ethyl)amino)-N′,N′-diphenylpropanehydrazide] | 50 |  |  | 0.05 | 0.3 | 6 | 9.47 | does it to a lesser extent | 13 ± 1 | 96 ± 23 | not cardiotoxic | 2.04 | 0.18 | 352 | 1.66 | 0.72 | 45 ± 3 | 26 ± 6 | 16.4 | estimated concentration on plasma [13]: 0.62 µM; AUClast ([13]; po, 50 mg/kg, 24 h): 3354.96 ng·h/mL; Cmax ([13]; po, 50 mg/kg, 24 h): 201.45 ng/mL; AUC(0-t) at 24 h ([14]; po, 50 mg/kg, AUClast (h × ng/mL)): 2020 ng·h/mL; Cmax at 24 h ([14]; po, 50 mg/kg): 278 ng/mL
4 | O=C(CNCCN1CCN(Cc2ccccc2)CC1)NN(c1ccccc1)c1ccccc1 [Compound 12, 2-((2-(4-Benzylpiperazin-1-yl)ethyl)amino)-N′,N′-diphenylacetohydrazide] | -29 | 63 | 12.9 | 2.17 | 7.8 | 108 | 101 |  |  |  |  |  |  |  |  |  |  |  |  | 
5 | O=C(CCNCCN1CCN(Cc2ccccc2)CC1)NN(c1ccccc1)c1ccccc1 [Compound 13, 3-((2-(4-Benzylpiperazin-1-yl)ethyl)amino)-N′,N′-diphenylpropanehydrazide] | 42 |  |  | 0.58 | 2.7 | 159 | 35.5 | interferes with the NPC1/EBOV-GPcl interaction similarly than our hit 1 (SC816) | 10.8 ± 0.3 | 170 ± 20 | not cardiotoxic | 46.4 | 0.99 | 262 | 46.5 | 3.65 | 53 ± 2 | 14 ± 2 | 14.9 | Cmax ([13]; ip, 10 mg/kg, 24 h): 170.55 ng/mL; half-life at 24 h ([14]; ip, 10 mg/kg): 46.2 min; Cmax at 24 h ([14]; ip, 10 mg/kg): 172 ng/mL
